This note sets out measurements from patent US10294237B2, “Bicyclic heterocyclic amide derivative” (Sumitomo Dainippon Pharma Co., Ltd., priority 2015, dated 2019).

Test [1] deals with HCT-116 cells. In words: Test for inhibiting sphere-forming ability of cancer cells. It is filed as cell-based. Conditions: HCT-116 spheres, non-adherent, serum-free, 4 days, CellTiter-Glo, read-out: IC50 (Sphere IC50 value; concentration for 50% inhibition of cell proliferation). Here is the method:
(§1) The reliable methods established for measuring the self-renewal ability of cells which is one of the CSC's properties include a method for measuring the sphere-forming ability of cancer cells in non-adherent condition in the absence of serum (Cancer Res 65, 5506-5511 (2005)). HCT-116 cells were available from the American Type Culture Collection (ATCC). HCT-116 cells were cultured at 37° C. and 5% CO2 using the McCoy's 5a medium containing 10% fetal bovine serum (FBS) and 1% penicillin/streptomycin. HCT-116 cells were seeded in a 384 Well Black Clear Bottom Ultra-Low Attachment Microplate (Corning Cat. No. 3827) in an amount of 350-800 cells/well using the DMEM/F12 medium containing 2% B27 supplement (GIBCO), 20 ng/mL epidermal growth factor (EGF) (peprotech), 10 ng/mL basic fibroblast growth factor (bFGF) (peprotech), 5 μg/mL insulin (Sigma), and 1% penicillin/streptomycin. The test compounds were added into each well to adjust the final concentration of DMSO to 0.1%, and the cells were cultured for 4 days. The number of viable cells in each well was then measured with CellTiter-Glo® Luminescent Cell Viability Assay (Promega) to calculate the concentration of each test compound for 50% inhibition of cell proliferation (Sphere IC50 value; μmol/L).
The experiment of Test Example 1 was performed for the compounds of each Example. The concentrations of each test compound for 50% inhibition of cell profeliration (Sphere IC50 value; μmol/L) are shown in the following Table.

Test [2] concerns HCT-116 cells. In words: Test for inhibiting sphere-forming ability of cancer cells (in the presence of BSA). Conditions: HCT-116 spheres, non-adherent, 5% BSA, 4 days, CellTiter-Glo, read-out: IC50 (Sphere IC50 value; concentration for 50% inhibition of cell proliferation). The format is cell-based. Here is the method: as §1, with “HCT-116” for “The reliable methods established for measuring the self-renewal ability of cells which is one of the CSC's properties include a method for measuring the sphere-forming ability of cancer cells in non-adherent condition in the absence of serum (Cancer Res 65, 5506-5511 (2005)). HCT-116”, “(Sigma), 5% bovine serum albumin (BSA),” for “(Sigma),”
The experiment of Test Example 2 was performed for the compounds of each Example. The concentrations of each test compound for 50% inhibition of cell profeliration (Sphere IC50 value; μmol/L) are shown in the following Table.

The subject of test [3] is HCT-116 cells. Put plainly: Anti-tumor effect to HCT-116 tumor-bearing mouse. Conditions: oral, administration period 17 days, nude mouse. It is filed as in vivo. An excerpt: The present compound can be used to evaluate the anti-tumor effect thereof. A 4 to 7-week-old nude mouse (BALB/cAnNCrj-nu/nu, female, CHARLES RIVER LABORATORIES JAPAN, INC.) received intradermal transplantation of HCT-116 cells (ATCC) in an amount of 3×10^6 cells/mouse around the ventral portion. The engraftment of HCT-116 cells was observed 5 to 14 days after the transplantation, and then each compound suspended in a solvent such as 0.5% methylcellulose solution was orally administrated to the mouse in a dose of 1 to 100 mg/kg one to twice daily. The tumor volume was measured over time after the administration to evaluate the effect for reducing the tumor volume by the administration of each compound. The tumor volume can be calculated from the minor axis and the major axis of the tumor measured with a digital caliper (Mitutoyo) according to the following formula: Tumor volume [mm^3]=0.5×minor axis [mm]×(major axis [mm])^2
The tumor volume in control administration group treated with only a solvent such as 0.5% methylcellulose solution was compared with that of the present compound administration group, and T/C value was calculated according the following formula to evaluate the anti-tumor effect of the present compound. T/C(%)=(the tumor volume at the end of administration in the present compound administration group−the tumor volume at the start of administration in the present compound administration group)/(the tumor volume at the end of administration in the control administration group−the tumor volume at the start of administration in the control administration group)×100
The T/C values (%) of the present compound on each dosage and administration period in the HCT-116 tumor-bearing mouse are shown below.

Take `O=C(Nc1cn(Cc2cc(F)c(F)c(F)c2)cn1)c1cc(F)c2c(c1)CCNC2` [Example 5, 8-fluoro-N-[1-(3,4,5-trifluorobenzyl)-1H-imidazol-4-yl]-1,2,3,4-tetrahydroisoquinoline-6-carboxamide]: the IC50 with HCT-116 cells [1] (Homo sapiens, 96 h) amounted to 70 nM; in the test on HCT-116 cells [2] (Homo sapiens, HCT-116, 96 h), 60 nM. Also, the T/C in the test with HCT-116 cells [3] (dosage 30 mg/kg) stood at 71%; with HCT-116 cells [3] (dosage 100 mg/kg), 42%.

`CN(C)c1cccc(Cn2cnc(NC(=O)c3ccc4c(c3)CCNC4)c2)c1` [Example 105]: the concentration for half-maximal inhibition (IC50) with HCT-116 cells [1] (Homo sapiens, 96 h) was 5900 nM; in the test on HCT-116 cells [2] (Homo sapiens, HCT-116, 96 h), 5120 nM.

As for `COc1cccc(Cn2cnc(NC(=O)c3ccc4c(c3)CCNC4)c2)c1` [Example 78], the half-maximal inhibitory concentration (IC50) in the test on HCT-116 cells [1] and in the test with HCT-116 cells [2] was 560 nM each time.

For the compound `O=C(/C=C/c1ccc2c(c1)OCO2)Nc1cn(Cc2cccc(Cl)c2)cn1` [Example 38], the IC50 amounted to 70 nM with HCT-116 cells [1] (Homo sapiens, 96 h) and 90 nM in the test on HCT-116 cells [2] (Homo sapiens, HCT-116, 96 h).

On to `O=C(Nc1cc2c(cc1F)CNCC2)c1cn(Cc2ccc(F)c(F)c2)cn1` [Example 2], for which the IC50 came to 660 nM in the test on HCT-116 cells [1] (Homo sapiens, 96 h) and 490 nM in the test with HCT-116 cells [2] (Homo sapiens, HCT-116, 96 h).

As for `O=C(Nc1cn(Cc2ccc(F)cc2)cn1)c1cnc2c(c1)CCNC2` [Example 61], the figures for the IC50 with HCT-116 cells [1] and in the test on HCT-116 cells [2] were 370 nM and 60 nM, respectively.

In the case of `O=C(Nc1cn(Cc2cccc(C(F)(F)F)c2)cn1)c1ccc2c(c1F)CCNC2` [Example 15], the IC50 in the test with HCT-116 cells [1] (Homo sapiens, 96 h) came out at 360 nM; in the test on HCT-116 cells [2] (Homo sapiens, HCT-116, 96 h) it was 550 nM.

For the compound `O=C(Nc1cn(Cc2cccc(Cl)c2)cn1)c1ccc2c(c1)CCNC2` [Example 45], the IC50 in the test on HCT-116 cells [1] (Homo sapiens, 96 h) was found to be 820 nM; in the test on HCT-116 cells [2] (Homo sapiens, HCT-116, 96 h), 660 nM.

For `O=C(Nc1cn(Cc2ccc(Cl)c(F)c2)cn1)c1cnc2c(c1)CCNC2` [Example 51, N-[1-(4-chloro-3-fluorobenzyl)-1H-imidazol-4-yl]-5,6,7,8-tetrahydro-1,7-naphthyridine-3-carboxamide], the IC50 in the test on HCT-116 cells [1] (Homo sapiens, 96 h) is 60 nM; in the test on HCT-116 cells [2] (Homo sapiens, HCT-116, 96 h), 50 nM.

On to `O=C(Nc1cn(Cc2cc(F)cc(F)c2)cn1)c1cnc2c(c1)CCNC2` [Example 47, N-[1-(3,5-difluorobenzyl)-1H-imidazol-4-yl]-5,6,7,8-tetrahydro-1,7-naphthyridine-3-carboxamide], for which the IC50 with HCT-116 cells [1] (Homo sapiens, 96 h) was 80 nM; in the test on HCT-116 cells [2] (Homo sapiens, HCT-116, 96 h), 50 nM.

Turning to `O=C(Nc1cn(Cc2ccc3ccccc3c2)cn1)c1cnc2c(c1)CCNC2` [Example 66], the IC50 with HCT-116 cells [1] was found to be 700 nM; in the test with HCT-116 cells [2], 5490 nM.

As for `O=C(Nc1cn(Cc2cccc(Cl)c2)cn1)c1cnc2c(c1)CCNC2` [Example 43], the IC50 amounted to 720 nM with HCT-116 cells [1] (Homo sapiens, 96 h) and 540 nM in the test with HCT-116 cells [2] (Homo sapiens, HCT-116, 96 h).

As to `O=C(Nc1cn(Cc2cccc(OC(F)(F)F)c2)cn1)c1cnc2c(c1)CCNC2` [Example 49, N-{1-[3-(trifluoromethoxy)benzyl]-1H-imidazol-4-yl}-5,6,7,8-tetrahydro-1,7-naphthyridine-3-carboxamide], the IC50 in the test with HCT-116 cells [1] (Homo sapiens, 96 h) turned out to be 70 nM; in the test with HCT-116 cells [2] (Homo sapiens, HCT-116, 96 h), 70 nM.

Take `O=C(Nc1cn(Cc2cccc(C(F)(F)F)c2)cn1)c1cc2c(cn1)CNCC2` [Example 9, N-{1-[3-(trifluoromethyl)benzyl]-1H-imidazol-4-yl}-5,6,7,8-tetrahydro-2,7-naphthyridine-3-carboxamide]: the IC50 turned out to be 70 nM with HCT-116 cells [1] (Homo sapiens, 96 h) and 500 nM in the test with HCT-116 cells [2] (Homo sapiens, HCT-116, 96 h).

`COc1cc(Cn2cnc(NC(=O)c3ccc4c(c3)CCNC4)c2)cc(OC)c1` [Example 94]: the IC50 is 6990 nM with HCT-116 cells [1] (Homo sapiens, 96 h) and 6110 nM in the test on HCT-116 cells [2] (Homo sapiens, HCT-116, 96 h).

`O=C(Nc1cc2c(cn1)CNCC2)c1cn(Cc2ccc(F)c(F)c2)cn1` [Example 35, 1-(3,4-difluorobenzyl)-N-(5,6,7,8-tetrahydro-2,7-naphthyridin-3-yl)-1H-imidazole-4-carboxamide]: the half-maximal inhibitory concentration (IC50) in the test on HCT-116 cells [1] (Homo sapiens, 96 h) was 80 nM; with HCT-116 cells [2] (Homo sapiens, HCT-116, 96 h), 50 nM.

With `O=C(Nc1cn(CCCc2ccccc2)cn1)c1cnc2c(c1)CCNC2` [Example 69], the IC50 is 760 nM in the test with HCT-116 cells [1] and 680 nM with HCT-116 cells [2].

Regarding `O=C(/C=C/c1ccc2c(c1)CCO2)Nc1cn(Cc2cccc(Cl)c2)cn1` [Example 41], the concentration for half-maximal inhibition (IC50) came out at 10 nM with HCT-116 cells [1] (Homo sapiens, 96 h) and 20 nM in the test on HCT-116 cells [2] (Homo sapiens, HCT-116, 96 h).

With `O=C(Nc1ccc2c(c1)CCNC2)c1cn(Cc2cc(F)c(F)c(F)c2)cn1` [Example 4, N-(1,2,3,4-tetrahydroisoquinolin-6-yl)-1-(3,4,5-trifluorobenzyl)-1H-imidazole-4-carboxamide], the IC50 in the test with HCT-116 cells [1] (Homo sapiens, 96 h) was 660 nM; with HCT-116 cells [2] (Homo sapiens, HCT-116, 96 h), 560 nM.

Regarding `N#Cc1cccc(Cn2cnc(NC(=O)c3cnc4c(c3)CCNC4)c2)c1` [Example 63], the figures for the IC50 in the test on HCT-116 cells [1] and in the test on HCT-116 cells [2] were 3590 nM and 710 nM, respectively.

On to `O=C(Nc1cn(Cc2cccc(Cl)c2)cn1)c1ccc2c(n1)CCNC2` [Example 44], for which the IC50 came to 780 nM in the test on HCT-116 cells [1] (Homo sapiens, 96 h) and 580 nM in the test with HCT-116 cells [2] (Homo sapiens, HCT-116, 96 h).

Take `N#Cc1cccc(Cn2cnc(NC(=O)c3ccc4c(c3)CCNC4)c2)c1` [Example 88]: the half-maximal inhibitory concentration (IC50) with HCT-116 cells [1] is 5030 nM; in the test on HCT-116 cells [2], 950 nM.

Consider `O=C(Nc1cn(Cc2cc(F)cc(F)c2)cn1)c1ccc2c(c1)CCNC2` [Example 74], for which the IC50 with HCT-116 cells [1] and with HCT-116 cells [2] was 490 nM throughout.

In the case of `O=C(Nc1cn(Cc2cc(F)cc(C(F)(F)F)c2)cn1)c1ccc2c(c1)CCNC2` [Example 99, N-{1-[3-fluoro-5-(trifluoromethyl)benzyl]-1H-imidazol-4-yl}-1,2,3,4-tetrahydroisoquinoline-6-carboxamide], the IC50 is 60 nM in the test on HCT-116 cells [1] (Homo sapiens, 96 h) and 60 nM in the test with HCT-116 cells [2] (Homo sapiens, HCT-116, 96 h).

For `O=C(Nc1cn(Cc2cc(F)c(F)c(F)c2)cn1)c1ccc2c(c1F)CCNC2` [Example 14], the IC50 in the test on HCT-116 cells [1] (Homo sapiens, 96 h) is 430 nM; in the test with HCT-116 cells [2] (Homo sapiens, HCT-116, 96 h), 460 nM.

With `O=C(Nc1cn(Cc2cc(F)cc(Cl)c2)cn1)c1ccc2c(c1)CCNC2` [Example 91, N-[1-(3-chloro-5-fluorobenzyl)-1H-imidazol-4-yl]-1,2,3,4-tetrahydroisoquinoline-6-carboxamide], the IC50 came out at 70 nM in the test with HCT-116 cells [1] (Homo sapiens, 96 h) and 80 nM in the test with HCT-116 cells [2] (Homo sapiens, HCT-116, 96 h).

Consider `Cc1nc(NC(=O)c2ccc3c(c2)CCNC3)cn1Cc1cccc(C(F)(F)F)c1` [Example 22], for which the IC50 was 200 nM in the test with HCT-116 cells [1] (Homo sapiens, 96 h) and 580 nM with HCT-116 cells [2] (Homo sapiens, HCT-116, 96 h).

As to `O=C(Nc1cn(Cc2ccccc2C(F)(F)F)cn1)c1ccc2c(c1)CCNC2` [Example 82], the concentration for half-maximal inhibition (IC50) stood at 3790 nM in the test on HCT-116 cells [1] and 4900 nM in the test with HCT-116 cells [2].

As for `O=C(Nc1cn(Cc2ccc(Cl)cc2)cn1)c1ccc2c(c1)CCNC2` [Example 87], the figures for the concentration for half-maximal inhibition (IC50) in the test on HCT-116 cells [1] and with HCT-116 cells [2] were 600 nM and 580 nM, respectively.

Take `O=C(Nc1cn(Cc2ccc(C(F)(F)F)cc2)cn1)c1ccc2c(c1)CCNC2` [Example 83]: the half-maximal inhibitory concentration (IC50) with HCT-116 cells [1] was 720 nM; in the test on HCT-116 cells [2] it was 540 nM.

As for `O=C(Nc1cn(Cc2cccc(C(F)(F)F)c2)cn1)c1cc2c(s1)CNCC2` [Example 17], the IC50 is 620 nM in the test on HCT-116 cells [1] (Homo sapiens, 96 h) and 720 nM in the test on HCT-116 cells [2] (Homo sapiens, HCT-116, 96 h).
